Tested on: SQ-20B tumor cells
Assay: Intracellular stability of antisense raf ODN in DMTAP:PC:CHOL liposomes
Assay type: cell-based, human
Conditions: 10 μM, 4 hours, 1% serum
Procedure: Stability experiments: SQ-20B tumor cells were incubated with a mixture of radiolabeled-(^32P-γATP) and 10 μM of unlabeled antisense raf oligonucleotide (ATG-AS (SEQ ID NO:1)) either in the liposome encapsulated form (LE-ATG-AS (SEQ ID NO:1)) (FIG. 19, Lane 1) or free form (ATG-AS (SEQ ID NO:1)) (FIG. 19, lane 2). The treatment lasted for 4 hours at 37° C. in 1% serum containing medium. Immediately following incubation, cells were washed with phosphate buffered saline (PBS), detached by trypsinization, and collected by centrifugation. The cell pellet was washed twice with PBS, and cells were then lysed in 10 mM Tris-HCl, 200 mM NaCl, 1% SDS, 200 μg/ml proteinase K, pH 7.4 for 2 hours at 37° C. Oligos were extracted with phenol:chloroform, and aqueous fraction was collected. The samples were normalized for equal radioactivity, and analyzed hy denaturing gel electrophoresis (15% polyacrylamide/7M urea), followed by autoradiography. […]
Stability experiments: SQ-20B tumor cells were incubated with a mixture of radiolabeled (^32P-γATP) and 10 μM of unlabeled antisense raf oligonucleotide (ATG-AS (SEQ ID NO:1)) in the liposome encapsulated form (LE-ATG-AS (SEQ ID NO:1)). […] The samples were normalized for equal radioactivity, and analyzed by denaturing gel electrophoresis (15% polyacrylamide/7M urea), followed by autoradiography. […]

Substance: 5′-GTG-CTCCATTGATGC-3′ (antisense GTGCTCCATTGATGC; DNA, linkages s1 o12 s1 (s phosphorothioate, o phosphodiester), methylation of C not given here) [ATG-AS raf ODN, antisense ODN to translation initiation site of human c-raf-1 cDNA; one terminal base linkage at each end phosphorothioate]
- integrity of oligonucleotide in treated cells: degraded form

— US7262173B2, “Chemosensitizing with liposomes containing oligonucleotides” (Georgetown University, priority 1997, dated 2007)
